Where two headings read alike, the source gives them in different places.
Legend:
Hs578T [1] = experiment: Cell vitality assay (ATP assay, CellTiter-Glo); format: cell-based; details: Homo sapiens, Hs-578T, 72 h
Summary of the method: (§1)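 Cells (1000/well) incubated 72 h with test compound, top dose 12.5 μM, twofold dilutions, DMSO as reference. Lysis reagent added, luminescence recorded; background from cell-free medium wells.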

SF126 [2] = experiment: Cell vitality assay (ATP assay, CellTiter-Glo); format: cell-based; details: Homo sapiens, SF-126; SF126, 72 h; Table IIa; read-out: IC50 ATP-Assay after 72 h SF126
Summary of the method: as §1

SF763 = experiment: Cell vitality assay (ATP assay, CellTiter-Glo); format: cell-based; details: SF763, 72 h; Table IIa; read-out: IC50 ATP-Assay after 72 h SF763
Summary of the method: as §1

U118 [3] = experiment: Cell vitality assay (ATP assay, CellTiter-Glo); format: cell-based; details: U118, 72 h; Table IIa; read-out: IC50 ATP-Assay after 72 h U118
Summary of the method: as §1

U138 = experiment: Cell vitality assay (ATP assay, CellTiter-Glo); format: cell-based; details: U138, 72 h; Table IIa; read-out: IC50 ATP-Assay after 72 h U138
Summary of the method: as §1

Hs578T [4] = experiment: Wound healing migration assay; format: cell-based; details: Homo sapiens, Hs-578T; HS578T cell line; Table Ib
Summary of the method: (§2)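 Cells seeded at 150000/24 well, grown to monolayer overnight, scratched with a pipette tip, then treated with compound at 12.5, 6.25 or 3.125 μM versus DMSO. Stopped by crystal violet fixation at 48-72 h once control wounds closed; IC50 taken as 50% wound size between t0 and t48 or t72.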

indicated cell line = experiment: Wound healing migration assay (Table IV); format: cell-based; details: compounds at 12.5, 6.25, 3.125 μM, 48 h-72 h
Summary of the method: as §2

A172 = experiment: Matrigel outgrowth assay/branching assay; format: cell-based; details: Homo sapiens, A 172, Table Vb, read-out: Total branching inhibition in Matrigel A172
Summary of the method: (§3)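 Read-out: microscopic images of invasive branching structures at 48 h, 72 h and 96 h. Cells sat on a 3 mg/ml Matrigel layer (set 1 h, 37° C) with compound at 3.125, 1.56 and 0.78 μM or DMSO. A concentration counts as positive only with complete branching inhibition.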

Hs578T [5] = experiment: Matrigel outgrowth assay/branching assay; format: cell-based; details: Homo sapiens, Hs-578T; HS578T cell line; Table Ib; read-out: Total branching inhibition in Matrigel HS578T
Summary of the method: as §3

SF126 [6] = experiment: Matrigel outgrowth assay/branching assay; format: cell-based; details: Homo sapiens, SF-126, Table Vb, read-out: Total branching inhibition in Matrigel SF126
Summary of the method: as §3

U118 [7] = experiment: Matrigel outgrowth assay/branching assay; format: cell-based; details: Table Vb, read-out: Total branching inhibition in Matrigel U118
Summary of the method: as §3

cells = experiment: Boyden chamber migration assay (Table VI); format: cell-based; details: Hs578T cells, 16 h migration
Summary of the method: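 20000 cells seeded in the upper compartment in 0% FCS plus 0.1% BSA and left 16 h to migrate through […] membrane toward 10% FCS medium below. Non-migrated cells swabbed off; cells on the filter underside fixed and counted.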

[8] = HS578T cell line, Table Ib, read-out: IC50 ATP-Assay HS578T after 72 h
[9] = Hs578T, Table IIa, read-out: IC50 ATP-Assay after 72 h Hs578T
[10] = Homo sapiens, A 172, A172 cells, read-out: IC50 Wound healing Assay A172
[11] = Homo sapiens, SF-126, SF126 cells, read-out: IC50 Wound healing Assay SF126
[12] = Homo sapiens, C8161 cells, read-out: IC50 Wound healing Assay C8161
[13] = SF763 cells, read-out: IC50 Wound healing Assay SF763
[14] = U118 cells, read-out: IC50 Wound healing Assay U118

With `COc1cc2c(Oc3ccc(NS(=O)(=O)c4ccccc4Cl)cc3F)ccnc2cc1OCCCN1CCCC(C)C1` (stereo not drawn) [Example 38, 2-Chloro-N-(3-fluoro-4-{6-methoxy-7-[3-(3-methyl-piperidin-1-yl)-propoxy]-quinolin-4-yloxy}-phenyl)-benzenesulfonamide] the IC50 (Hs578T [1]; [8]) was 12.5 to 50 µM, the IC50 (Hs578T [1]; [9]) was 12.5 to 50 µM and the IC50 (SF126 [2]) was no more than 12.5 µM. For the same compound, the IC50 (SF763) was no more than 12.5 µM, the IC50 (U118 [3]) was no more than 12.5 µM and the IC50 (U138) was no more than 12.5 µM. For the same compound, the IC50 (Hs578T [4]) was no more than 12.5 µM, the IC50 (indicated cell line; [10]) was no more than 12.5 µM and the IC50 (indicated cell line; [11]) was no more than 12.5 µM. It also gave an IC50 (indicated cell line; [12]) of no more than 12.5 µM, an IC50 (indicated cell line; [13]) of 12.5 to 50 µM and an IC50 (indicated cell line; [14]) of no more than 12.5 µM. For the same compound, the IC100 (A172) was no more than 12.5 µM, the IC50 (Hs578T [5]) was no more than 10 µM and the IC100 (SF126 [6]) was no more than 12.5 µM. The IC100 (U118 [7]) was greater than 12.5 µM, the IC50 (cells; Homo sapiens, Hs-578T, 16 h) was 5 to 50 µM and the melting point was 115 to 118 °C.
For `COc1cc2c(Oc3ccc(NS(=O)(=O)c4ccc(F)cc4F)cc3F)ccnc2cc1OCCCN1CCCC(C)C1` (stereo not drawn) [Example 47, 2,4-Difluoro-N-(3-fluoro-4-{6-methoxy-7-[3-(3-methyl-piperidin-1-yl)-propoxy]-quinolin-4-yloxy}-phenyl)-benzenesulfonamide], the IC50 (Hs578T [1]; [8]) was no more than 12.5 µM, the IC50 (Hs578T [1]; [9]) was no more than 12.5 µM and the IC50 (SF126 [2]) was no more than 12.5 µM. For the same compound, the IC50 (SF763) was no more than 12.5 µM, the IC50 (U118 [3]) was no more than 12.5 µM and the IC50 (U138) was no more than 12.5 µM. It also gave an IC50 (Hs578T [4]) of no more than 12.5 µM, an IC50 (indicated cell line; [10]) of no more than 12.5 µM and an IC50 (indicated cell line; [11]) of no more than 12.5 µM. The IC50 (indicated cell line; [12]) was no more than 12.5 µM, the IC50 (indicated cell line; [13]) was no more than 12.5 µM and the IC50 (indicated cell line; [14]) was no more than 12.5 µM. The IC100 (A172) was greater than 12.5 µM, the IC50 (Hs578T [5]) was no more than 10 µM and the IC100 (SF126 [6]) was no more than 12.5 µM. For the same compound, the IC100 (U118 [7]) was no more than 12.5 µM, the IC50 (cells; Homo sapiens, Hs-578T, 16 h) was no more than 5 µM and the melting point was 118 to 120 °C.
Compound `COc1cc2c(Oc3ccc(NS(=O)(=O)c4c(F)cccc4F)cc3F)ccnc2cc1OCCCN1CCOCC1` [Example 77, 2,6-Difluoro-N-{3-fluoro-4-[6-methoxy-7-(3-morpholin-4-yl-propoxy)-quinolin-4-yloxy]-phenyl}-benzenesulfonamide] has an IC50 (Hs578T [1]; [8]) of no more than 12.5 µM, an IC50 (Hs578T [1]; [9]) of no more than 12.5 µM and an IC50 (SF126 [2]) of 12.5 to 50 µM. The IC50 (SF763) was no more than 12.5 µM, the IC50 (U118 [3]) was no more than 12.5 µM and the IC50 (U138) was no more than 12.5 µM. For the same compound, the IC50 (Hs578T [4]) was no more than 12.5 µM, the IC50 (indicated cell line; [10]) was no more than 12.5 µM and the IC50 (indicated cell line; [11]) was no more than 12.5 µM. The IC50 (indicated cell line; [12]) was no more than 12.5 µM, the IC50 (indicated cell line; [13]) was no more than 12.5 µM and the IC50 (indicated cell line; [14]) was no more than 12.5 µM. The IC100 (A172) was greater than 12.5 µM, the IC50 (Hs578T [5]) was no more than 10 µM and the IC100 (SF126 [6]) was no more than 12.5 µM. It also gave an IC100 (U118 [7]) of no more than 12.5 µM, an IC50 (cells; Homo sapiens, Hs-578T, 16 h) of no more than 5 µM and a melting point of 190 to 192 °C.
With `COc1cc2c(Oc3ccc(NS(=O)(=O)c4ccccc4C(F)(F)F)cc3Cl)ccnc2cc1OCCCN1CCN(C)CC1` [Example 87, N-(3-Chloro-4-{6-methoxy-7-[3-(4-methyl-piperazin-1-yl)-propoxy]-quinolin-4-yloxy}-phenyl)-2-trifluoromethyl-benzenesulfonamide] the IC50 (Hs578T [1]; [8]) was 12.5 to 50 µM, the IC50 (Hs578T [1]; [9]) was 12.5 to 50 µM and the IC50 (SF126 [2]) was no more than 12.5 µM. It also gave an IC50 (SF763) of no more than 12.5 µM, an IC50 (U118 [3]) of no more than 12.5 µM and an IC50 (U138) of no more than 12.5 µM. It also gave an IC50 (Hs578T [4]) of no more than 12.5 µM, an IC50 (indicated cell line; [10]) of no more than 12.5 µM and an IC50 (indicated cell line; [11]) of no more than 12.5 µM. It also gave an IC50 (indicated cell line; [12]) of 12.5 to 50 µM, an IC50 (indicated cell line; [13]) of no more than 12.5 µM and an IC50 (indicated cell line; [14]) of no more than 12.5 µM. It also gave an IC100 (A172) of no more than 12.5 µM, an IC50 (Hs578T [5]) of no more than 10 µM and an IC100 (SF126 [6]) of no more than 12.5 µM. It also gave an IC100 (U118 [7]) of no more than 12.5 µM, an IC50 (cells; Homo sapiens, Hs-578T, 16 h) of 5 to 50 µM and an IC50 (cells) of no more than 5 µM. For the same compound, the melting point was 103 to 105 °C.
In the case of `COc1cc2c(Oc3ccc(NS(=O)(=O)c4ccccc4C(F)(F)F)cc3F)ccnc2cc1OCCCN1CCCCC1C` (stereo not drawn) [Example 99, N-(3-Fluoro-4-{6-methoxy-7-[3-(2-methyl-piperidin-1-yl)-propoxy]-quinolin-4-yloxy}-phenyl)-2-trifluoromethyl-benzenesulfonamide], the IC50 (Hs578T [1]; [8]) is reported as no more than 12.5 µM, the IC50 (Hs578T [1]; [9]) is reported as no more than 12.5 µM and the IC50 (SF126 [2]) is reported as no more than 12.5 µM. For the same compound, the IC50 (SF763) was no more than 12.5 µM, the IC50 (U118 [3]) was no more than 12.5 µM and the IC50 (U138) was no more than 12.5 µM. The IC50 (Hs578T [4]) was no more than 12.5 µM, the IC50 (indicated cell line; [10]) was no more than 12.5 µM and the IC50 (indicated cell line; [11]) was no more than 12.5 µM. The IC50 (indicated cell line; [12]) was 12.5 to 50 µM, the IC50 (indicated cell line; [13]) was no more than 12.5 µM and the IC50 (indicated cell line; [14]) was no more than 12.5 µM. It also gave an IC100 (A172) greater than 12.5 µM, an IC50 (Hs578T [5]) of no more than 10 µM and an IC100 (SF126 [6]) of no more than 12.5 µM. The IC100 (U118 [7]) was no more than 12.5 µM and the melting point was 115 to 116 °C.

From patent US9169241B2, “Quinolinyloxyphenylsulfonamides” (Max-Planck-Gesellschaft Zur Forderung der Wissenschaften …, priority 2009, dated 2015)
